The IC50 is the concentration at which inhibition is half-maximal. A word on the IC90: it is the concentration at which the effect reaches the 90% level. Read a high IC90 as a need for much substance.

The experiment deals with M. tuberculosis H37Rv growth inhibition, 7H9 media. Put plainly: M. tuberculosis growth inhibition, HTS (AID 449762).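 For all read-outs here: bacterial growth assessed after seven days of incubation.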 The following applies: for IC90: measured here: IC90 growth inhibition.

Results filed as inconclusive are left out.

With `O=C(Nc1ccc(Oc2cccc(C(F)(F)F)c2)nc1)c1cccs1`, the IC50 was 39.6 µM and the concentration for an effect of 90% (IC90) is above 100 µM.

On to `CCOc1ccc(/C=C/C2=Cc3c(sc(NC(=O)CSc4n[nH]c(N)n4)c3C#N)C(C)(C)C2)cc1`, for which the IC90 was above 100 µM.

On to `CCc1ccc2nc(N(CCCN(C)C)C(=O)c3ccc(S(=O)(=O)N4CCCc5ccccc54)cc3)sc2c1`, for which the half-inhibitory concentration (IC50) is 28.1 µM and the IC90 stood at 33.9 µM.

Consider `C=CCn1c(O)c(N=Nc2ccccc2O)c2ccccc21`, for which the IC50 was 6.1 µM and the IC90 worked out at 24.3 µM.

On to `CCCCN1C(=O)C2(NNc3ccccc3O2)c2ccccc21` (centres undefined), for which the concentration for half-maximal inhibition (IC50) is 57.5 µM and the concentration for an effect of 90% (IC90) was above 100 µM.

As for `Cc1oc2c(c1C(=O)NCc1cccnc1)C(=O)c1ccccc1C2=O`, the half-maximal inhibitory concentration (IC50) is 9.78 µM and the IC90 was found to be 13.9 µM.

Turning to `CC(c1ccccc1)N1CCN(C(=O)CCl)CC1` (centres undefined), the concentration for half-maximal inhibition (IC50) is 1.26 µM and the IC90 came to 3.24 µM.

In the case of `Cc1nc(SCC(=O)NCC2CCCO2)c2c3c(sc2n1)CCCC3` (centres undefined), the IC50 was 22.2 µM and the concentration for an effect of 90% (IC90) is 24.6 µM.

On to `C/C(=N\Nc1ccc(S(=O)(=O)N2CCCCC2)cn1)c1cccc(Br)c1`, for which the concentration for half-maximal inhibition (IC50) is 32.7 µM and the IC90 is above 100 µM.

Consider `CO[C@@]12[C@H](COC(N)=O)C3=C(C(=O)C(C)=C(N)C3=O)N1C[C@@H]1N[C@@H]12`, for which the IC50 was 39.6 µM and the 90% effect concentration (IC90) was 69.5 µM.

`COc1cc(/C=N/NC(=O)COc2ccc(C)cc2)ccc1OC(=O)c1cccs1`: the concentration for half-maximal inhibition (IC50) was 18.1 µM and the 90% effect concentration (IC90) was determined as 30.2 µM.

Take `O=C(c1ccccc1)C1CN(Cc2ccccc2)CCC1(O)c1ccccc1` (centres undefined): the concentration for half-maximal inhibition (IC50) is 9.4 µM and the IC90 came out at 14.6 µM.

As to `c1ccc(-c2ccc(C(c3ccccc3)n3ccnc3)cc2)cc1` (centres undefined), the half-maximal inhibitory concentration (IC50) was 19.7 µM and the 90% effect concentration (IC90) came out at 31.7 µM.

Turning to `CCOc1cc(-c2c(C#N)c(=O)[nH]c3c2c(C)nn3-c2ccc(F)cc2)ccc1O`, the IC50 is 1.21 µM and the 90% effect concentration (IC90) is 4.98 µM.

In turn, `O=C(c1cc2cc(Cl)ccc2[nH]1)N1CCN(Cc2ccc3c(c2)OCO3)CC1` came in with an IC90 above 100 µM.

Take `COc1ccc(-c2nnc3sc(C4CCCCC4)nn23)cc1OC`: the IC50 is 36.2 µM and the 90% effect concentration (IC90) was determined as 55.3 µM.

As for `O=C(OCC(=O)c1c[nH]c2ccccc12)c1cc(Br)ccc1O`, the IC50 is 9.23 µM and the IC90 was 15.3 µM.

Regarding `O=S(=O)(Nc1ccn(-c2ccccc2)n1)c1ccc(Br)cc1`, the IC50 was 95.4 µM and the IC90 was above 100 µM.

As for `CC(C)(C)C(=O)N1CCN(c2ccc(NC(=O)c3ccc([N+](=O)[O-])o3)cc2)CC1`, the half-maximal inhibitory concentration (IC50) was below 0.2 µM and the IC90 is below 0.2 µM.

As to `COC(=O)c1ccc(-n2cnc3ccccc32)nc1`, the IC50 is 13.9 µM and the concentration for an effect of 90% (IC90) was found to be 45.1 µM.

Turning to `CCOc1ccc(-c2[nH]ncc2-c2ccc(Cl)cc2)c(O)c1`, the 50% inhibitory concentration (IC50) is 46.8 µM and the 90% effect concentration (IC90) was 66.5 µM.

Turning to `CCOC(=O)N/N=C(/C)c1ccc([N+](=O)[O-])o1`, the IC50 was 3.86 µM and the IC90 came out at 11.8 µM.

Consider `CN1CCN(C2Cc3ccccc3Sc3cc(C(F)(F)F)ccc32)CC1` (centres undefined), for which the IC50 was 13.5 µM and the IC90 stood at 15.6 µM.

On to `Cc1ccc(-n2[nH]c(C)c(C=Nc3ccc(S(=O)(=O)Nc4nccs4)cc3)c2=O)c(C)c1`, for which the IC50 is 5.73 µM and the concentration for an effect of 90% (IC90) amounted to 17 µM.

With `CCOC(=O)/C(=N/Nc1ccccc1)c1csc(Nc2ccccc2)n1`, the half-inhibitory concentration (IC50) is 34.6 µM and the IC90 is above 100 µM.

Turning to `O=c1c(Cl)nc2cc(Cl)ccc2n1CCNc1ncc(C(F)(F)F)cc1Cl`, the IC50 is 1.3 µM and the IC90 stood at 3.89 µM.

On to `Cc1cc(/C=N/n2cnnc2)c(C)n1-c1ccc(OCc2ccc(Cl)cc2Cl)cc1`, for which the IC50 was 7.25 µM and the IC90 was 15.8 µM.

Regarding `CC(=O)N1CCN(c2ccc(Oc3ccc([N+](=O)[O-])c(C(F)(F)F)c3)cc2)CC1`, the IC50 is 7.54 µM and the 90% effect concentration (IC90) was 19.3 µM.

Consider `Cc1ccc(C(=O)N/N=C(/CC(=O)c2cccs2)C(F)(F)F)cc1`, for which the IC50 was 2.97 µM and the IC90 was found to be 3.28 µM.

Take `Cc1ccc(C2=NNC3(CCOC(C)(C)C3)S2)cc1` (centres undefined): the IC50 was 11.1 µM and the IC90 was 14.9 µM.

Regarding `CCOC(=O)C1=C(C)Nc2nc(SCC(=O)OC)nn2C1c1cc(F)cc(F)c1` (centres undefined), the 50% inhibitory concentration (IC50) is 5.06 µM and the concentration for an effect of 90% (IC90) was 7.95 µM.

Take `O=C1NCC(c2ccccc2)C1C(=O)N/N=C\c1ccc(-c2ccc(Cl)c(Cl)c2)o1` (centres undefined): the IC50 is 91 µM and the 90% effect concentration (IC90) is above 100 µM.

As for `Cc1ccc(/C=C/C(=O)N2CC(C)CC(C)C2)o1` (centres undefined), the IC50 is 8.06 µM and the concentration for an effect of 90% (IC90) stood at 22.1 µM.

As to `COc1ccc2[nH]c3c(C)c4ccncc4c(C)c3c2c1`, the 50% inhibitory concentration (IC50) is 0.89 µM and the IC90 is 2.68 µM.

For the compound `CN1CCN(c2cc(-c3ccccc3)nc3cc(-c4ccc(F)cc4)nn23)CC1`, the IC50 is 11.4 µM and the IC90 was 15.7 µM.

On to `CCCCN(C)C(=O)Cc1c(OC)ccc2cc(Br)ccc12`, for which the half-maximal inhibitory concentration (IC50) is 19.5 µM and the IC90 came out at 29.2 µM.

`CCCOC(=O)/C(=C\c1ccc([N+](=O)[O-])o1)NC(=O)c1ccccc1`: the 50% inhibitory concentration (IC50) is 11 µM and the IC90 came out at 16.2 µM.

Turning to `Clc1nc2c(-c3ccccc3)nnn2c2ccccc12`, the IC50 was 9.39 µM and the 90% effect concentration (IC90) stood at 16.6 µM.

As to `Cc1ccc(Nc2nc(N)c([N+](=O)[O-])c(N3CCCC(C)C3)n2)cc1C` (centres undefined), the IC50 was 99.9 µM and the IC90 is above 100 µM.

In the case of `Cc1cc2nc(C3CCN(CC4COc5ccccc5O4)CC3)[nH]c2cc1C` (centres undefined), the IC50 was 15.5 µM and the concentration for an effect of 90% (IC90) came out at 25.4 µM.

Take `C/C(=N/NC(=O)c1ccccn1)c1c[nH]c2ccccc12`: the IC50 was 6.03 µM and the concentration for an effect of 90% (IC90) stood at 11.8 µM.

Consider `C=CCOc1c(Br)cc(CNc2nccs2)cc1OC`, for which the half-maximal inhibitory concentration (IC50) is 22.3 µM and the IC90 was 40.9 µM.

For the compound `Cn1cccc1/C=C1/C(=O)NC(=S)N(Cc2ccc(F)cc2)C1=O`, the IC50 is 24.2 µM and the IC90 is above 100 µM.

Take `Cc1cc(C2N=C(N)Nc3nc4ccccc4n32)c(C)n1-c1ccccc1Cl` (centres undefined): the concentration for half-maximal inhibition (IC50) is 12.1 µM and the IC90 came to 16.6 µM.

As to `O=C(OCc1ccccc1)/C(=C(\O)c1ccccc1Br)c1ccc(-c2ccccc2)cn1`, the half-inhibitory concentration (IC50) was 23.9 µM and the concentration for an effect of 90% (IC90) worked out at 45.8 µM.

As for `CC[C@@H](C)[C@H](CN[C@H](CNC)C(C)C)NC[C@@H](C)c1ccc(CC(C)C)cc1`, the IC50 was 11.3 µM and the concentration for an effect of 90% (IC90) was 12.6 µM.

For `COc1ccc(N2CCN(C(=O)c3ccc(CNc4c(N5CCOCC5)c(=O)c4=O)cc3)CC2)cc1`, the IC50 is 2.42 µM and the IC90 turned out to be 5.17 µM.

`OC(CNCC(c1ccc(Cl)cc1Cl)c1c[nH]c2ccccc12)c1ccccc1` (centres undefined): the IC50 was 16.9 µM and the IC90 was 23.4 µM.

Regarding `Cc1cc(=O)n2cccc(O)c2n1`, the IC50 is 5.94 µM and the IC90 is 15.6 µM.

With `O=C(CSc1nnnn1C1CCCCC1)Nc1nc2c(s1)CCCC2`, the concentration for half-maximal inhibition (IC50) was 30.7 µM and the IC90 turned out to be 59.3 µM.

For `C=CCN(CC(=O)c1sc(C(=O)OCC)nc1C)c1cccc(Br)c1`, the IC50 is 19.4 µM and the concentration for an effect of 90% (IC90) was determined as 28.8 µM.

In the case of `CC1CC(C)(C)Nc2ccc(OC(=O)c3ccco3)cc21` (centres undefined), the IC50 is 6.31 µM and the concentration for an effect of 90% (IC90) is 16.4 µM.

Turning to `CN(C)c1ccc(O)c2c1CC1CC3[C@@H](N(C)C)C(=O)C(C(N)=O)C(=O)[C@]3(O)C(=O)C1C2=O` (some centres undefined), the IC50 is 1.27 µM and the concentration for an effect of 90% (IC90) is 3.62 µM.

`O=C(Nc1ccc([N+](=O)[O-])cc1)Nc1ccc(OC(F)F)c(Cl)c1`: the IC50 was 2.83 µM and the IC90 came out at 4.03 µM.

On to `Cc1[nH][nH]c(=O)c1C(c1ccc(-c2ccc(Cl)c(Cl)c2)o1)c1c(C)[nH][nH]c1=O`, for which the half-maximal inhibitory concentration (IC50) was 53.4 µM and the IC90 came out at 85.6 µM.

Consider `COC(=O)[C@H](CC(C)C)NC(=O)c1cc2c(cn1)[nH]c1ccccc12`, for which the IC50 is 8.55 µM and the IC90 is 29.2 µM.

Take `Cc1cccc(OCC(=O)NNC(=O)c2cc3ccccc3oc2=O)c1`: the 50% inhibitory concentration (IC50) was 25.4 µM and the 90% effect concentration (IC90) is above 100 µM.

On to `CCCCCCCCCCOC(=O)Cn1c(COc2ccc(Cl)cc2)[n+](C)c2ccccc21`, for which the half-maximal inhibitory concentration (IC50) is 11.8 µM and the 90% effect concentration (IC90) stood at 13.3 µM.

`COc1ccc(/C=C2\CCC/C(=C\C=N\N(C)C)C2=O)cc1`: the half-inhibitory concentration (IC50) is 8.19 µM and the IC90 is 16.2 µM.

For `COc1cc2c(cc1OC)CN(CCC(=O)c1ccc(Br)cc1)CC2`, the IC50 is 12.1 µM and the 90% effect concentration (IC90) is 13.7 µM.

`C[N+](C)(CCCCCC[N+](C)(C)CCCN1C(=O)c2cccc3cccc(c23)C1=O)CCCN1C(=O)c2cccc3cccc(c23)C1=O`: the IC50 was 2.59 µM and the IC90 was 3.72 µM.

With `COC(=O)CC(=O)N1CCN(c2ccc(Cl)c(Cl)c2)CC1`, the IC50 is 20 µM and the IC90 is 55 µM.

Consider `COC(=O)C(CCSC)NC(=O)c1cn(-c2ccc(OC)cc2)c(=O)c2ccccc12` (centres undefined), for which the IC50 is 12 µM and the IC90 was above 100 µM.

`CC(C)c1ccc2c(c1)CCC1C(C)(CN)CCCC21C` (centres undefined): the IC50 was 15.7 µM and the IC90 came out at 25.6 µM.

In the case of `c1ccc(CN2CCC(Nc3nc(-c4ccccc4)nc4ccccc34)CC2)cc1`, the IC50 was 10.3 µM and the IC90 worked out at 16.3 µM.

Take `c1cc2c3c(cccc3c1)NC1(CCC3(CC1)Nc1cccc4cccc(c14)N3)N2`: the half-inhibitory concentration (IC50) is 65.5 µM and the IC90 was above 100 µM.

With `CCOC(=O)N1CCN=C1SCc1ccc(C(F)(F)F)cc1`, the 90% effect concentration (IC90) is above 100 µM.

Turning to `CCOc1ccc(NC(=O)CCc2nnc3ccc(N4CCC(C)CC4)nn23)cc1`, the IC50 was 8.75 µM and the 90% effect concentration (IC90) was determined as 15.3 µM.

As for `COc1cc(NC(=O)c2cccs2)c(C(=O)OCC(=O)NCc2ccco2)cc1OC`, the 50% inhibitory concentration (IC50) is 23.9 µM and the concentration for an effect of 90% (IC90) is above 100 µM.

For `CN(C)c1ccc(CNC2C3CC4CC(C3)CC2C4)cc1` (centres undefined), the half-inhibitory concentration (IC50) was 11.8 µM and the 90% effect concentration (IC90) was 13 µM.

For `O=C(CSC(=S)N1CCCC1)c1cc(Br)cc(Br)c1O`, the IC50 is 23.9 µM and the concentration for an effect of 90% (IC90) came out at 36.6 µM.

The values above are taken from PubChem BioAssay AID449762 (Southern Research Specialized Biocontainment Screening …, 2010).
